Measurements taken from patent publication EP1247803A2, “Indolinone compounds suitable for modulation of protein kinases” (Sugen, Inc., priority 1996, dated 1998).

Columns and labels:
[1] = target: T1, FLK-1 receptor (Mus musculus, UniProt P35918); experiment: FLK-1 ELISA (kinase activity of the FLK-1 receptor in FLK-1/NIH3T3 cells, VEGF stimulated); format: cell-based
T1 construct: expressed in transfected cells; host or cells: NIH3T3 C7#3
Protocol: An enzyme linked immunosorbent assay (ELISA) was conducted to measure the catalytic activity of the FLK-1 receptor and more specifically, the inhibition or activation of indolinone compounds on the catalytic activity of the FLK-1 receptor. Specifically, the following assay was conducted to measure catalytic activity of the FLK-1 receptor in FLK-1/NIH3T3 cells.
The materials and protocol for the FLK-1 ELISA assay are as described in International Patent Publication No. WO 96/40116, published December 19, 1996 by Tang et al.
Selected compounds were tested in the FLK-1 ELISA assay.
An ELISA assay was conducted to measure the kinase activity of the FLK-1 receptor and more specifically, the inhibition or activation of protein tyrosine kinase activity on the FLK-1 receptor. Specifically, the following assay was conducted to measure kinase activity of the FLK-1 receptor in FLK-1/NIH3T3 cells.
Materials. The following reagents and supplies were used: • a. […] Cappel goat anti-rabbit IgG (catalog no. 55641); • c. PBS (Gibco Catalog No. 450-1300EB); • d. TBSW Buffer (50 mM Tris (pH 7.2), 150 mM NaCl and 0.1% Tween-20); • e. Ethanolamine stock (10% ethanolamine (pH 7.0), stored at 4°C); • f. HNTG buffer (20mM HEPES buffer (pH 7.5), 150mM NaCl, 0.2% Triton X-100, and 10% glycerol); • g. EDTA (0.5 M (pH 7.0) as a 100X stock); • h. Sodium ortho vanadate (0.5 M as a 100X stock); • i. Sodium pyro phosphate (0.2M as a 100X stock); • j. NUNC 96 well V bottom polypropylene plates (Applied Scientific Catalog No. AS-72092); • k. NIH3T3 C7#3 Cells (FLK-1 expressing cells); • l. DMEM with 1X high glucose L Glutamine (catalog No. 11965-050); • m. FBS, Gibco (catalog no. 16000-028); • n. L-glutamine, Gibco (catalog no. 25030-016); • o. VEGF, PeproTech, Inc. (catalog no. 100-20)(kept as 1 µg/100 µl stock in Milli-Q dH2O and stored at -20°C; • p. Affinity purified anti-FLK-1 antiserum which can be obtained or purified as follows: • 1. Prepare a Tresyl-Activated Agarose/Flk-1-D column by incubating 10 ml of Tresyl-Activated Agarose with 20 mg of purified GST-Flk-1-D fusion protein in 100mM sodium bicarbonate (pH 9.6) buffer overnight at 4 °C. • 2. Wash the column once with PBS. • 3. Block the excess sites on the column with 2 M glycine for 2 hours at 4°C. • 4. Wash the column with PBS. • 5. Incubate the column with Rabbit anti-Flk-1D production bleed for 2 hours at 4 °C. • 6. Wash the column with PBS. • 7. Elute antiserum with 100 mM Citric Acid, pH3.0 and neutralize the eluate immediately with 2 M Tris, pH 9.0. • 8. Dialyize the eluate against PBS overnight at 4 °C with 3 changes of buffer (sample to buffer ratio is 1:100). • 9. Adjust the dialyized antiserum to 5% glycerol and store at -80 °C in small aliquotes. • q.
Protocol. The following protocol was used for conducting the assay: • 1. Coat Corning 96-well elisa plates with 1.0µg per well Cappel Anti-rabbit IgG antibody in 0.1M Na2CO3 pH 9.6. Bring final volume to 150 µl per well. Coat plates overnight at 4°C. Plates can be kept up to two weeks when stored at 4°C. • 2. Grow cells in Growth media(DMEM, supplemental with 2.0mM L-Glutamine, 10% FBS) in suitable culture dishes until confluent at 37°C, 5% CO2. • 3. Harvest cells by trypsinization and seed in Corning 25850 polystyrene 96-well roundbottom cell plates, 25.000 cells/well in 200µl of growth media. • 4. Grow cells at least one day at 37°C, 5% CO2. • 5. Wash cells with D-PBS 1X. • 6. Add 200µl/well of starvation media (DMEM, 2.0mM 1-Glutamine, 0.1% FBS). Incubate overnight at 37°C, 5% CO2. • 7. Dilute Compounds/Extracts 1:20 in polypropylene 96 well plates using starvation media. Dilute dimethylsulfoxide 1:20 for use in control wells. • 8. Remove starvation media from 96 well cell culture plates and add 162 µl of fresh starvation media to each well. • 9. Add 18µl of 1:20 diluted Compound/Extract dilution (from step 7) to each well plus the 1:20 dimethylsulfoxide dilution to the control wells (+/- VEGF), for a final dilution of 1:200 after cell stimulation. […]

[2] = system: MET; experiment: MET biochemical kinase assay; design: species or system human; concentration or dose not given beside the values
Text: A met biochemical kinase assay may be performed for met generally as described above for other kinases by substituting that or the other kinases. In particular, ELISA plates are coated with goat anti-rabbit Fc antibodies, which are used to capture commercially available (from Santa Cruz Biotechnology) rabbit polyclonal antibodies to the cytoplasmic domain of human MET. […] The chimeric receptors, or MET, from these lysates are captured on the antibody coated plates. After washing away extraneous proteins, test compounds are added and an in vitro kinase assay is performed by addition of an appropriate kinase buffer (containing ATP, divalent metal ions, etc.). Incorporation of phosphate into the captured receptors is detected with an anti-phosphotyrosine antibody conjugate with horse radish peroxidase using TMB as a substrate for colorimetric detection.

T1 sequence (P35918 20-1345): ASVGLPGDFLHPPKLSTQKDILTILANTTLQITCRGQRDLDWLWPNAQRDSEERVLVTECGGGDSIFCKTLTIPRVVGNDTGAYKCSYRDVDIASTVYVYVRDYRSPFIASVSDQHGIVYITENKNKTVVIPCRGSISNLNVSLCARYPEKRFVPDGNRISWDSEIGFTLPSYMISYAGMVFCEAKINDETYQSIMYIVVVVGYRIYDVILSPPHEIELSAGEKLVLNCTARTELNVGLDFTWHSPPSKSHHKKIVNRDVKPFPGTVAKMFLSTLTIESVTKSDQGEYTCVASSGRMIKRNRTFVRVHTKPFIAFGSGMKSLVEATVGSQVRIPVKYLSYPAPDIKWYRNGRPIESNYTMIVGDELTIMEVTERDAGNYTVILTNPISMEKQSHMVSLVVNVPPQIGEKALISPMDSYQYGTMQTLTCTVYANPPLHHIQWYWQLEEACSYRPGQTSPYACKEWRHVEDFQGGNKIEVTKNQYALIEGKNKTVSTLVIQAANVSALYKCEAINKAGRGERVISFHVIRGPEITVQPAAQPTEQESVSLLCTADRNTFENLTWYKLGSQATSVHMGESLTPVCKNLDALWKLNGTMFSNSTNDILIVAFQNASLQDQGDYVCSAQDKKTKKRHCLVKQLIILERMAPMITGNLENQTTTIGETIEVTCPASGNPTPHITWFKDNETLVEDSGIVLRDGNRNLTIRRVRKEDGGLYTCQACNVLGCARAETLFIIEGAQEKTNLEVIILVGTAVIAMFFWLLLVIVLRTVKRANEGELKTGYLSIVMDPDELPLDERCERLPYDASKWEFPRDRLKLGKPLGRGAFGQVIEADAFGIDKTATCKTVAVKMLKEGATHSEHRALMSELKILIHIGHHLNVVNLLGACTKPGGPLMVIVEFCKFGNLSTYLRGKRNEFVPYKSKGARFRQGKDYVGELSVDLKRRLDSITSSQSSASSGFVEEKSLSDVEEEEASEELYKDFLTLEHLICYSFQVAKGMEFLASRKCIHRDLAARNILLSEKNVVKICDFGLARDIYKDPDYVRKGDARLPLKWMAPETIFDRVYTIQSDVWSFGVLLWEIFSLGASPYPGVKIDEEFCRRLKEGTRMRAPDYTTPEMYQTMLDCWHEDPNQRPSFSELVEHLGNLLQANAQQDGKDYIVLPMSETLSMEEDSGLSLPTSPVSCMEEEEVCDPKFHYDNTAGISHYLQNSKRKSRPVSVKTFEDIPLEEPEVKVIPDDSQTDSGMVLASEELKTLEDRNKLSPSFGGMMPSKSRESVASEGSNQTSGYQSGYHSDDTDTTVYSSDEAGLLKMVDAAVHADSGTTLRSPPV

Compound | Fik Kinase %Inhibition [1] [%] | Met Kinase % Inhibition [2] [%]
CN1C(=O)C(=C2C(=O)Nc3ccc(S(=O)(=O)N4CCOCC4)cc32)c2ccccc21 [10731/F10] | 11.0 | 48.1
COc1c(C(C)C)cc(C=C2C(=O)Nc3c(Br)cc(Br)cc32)cc1C(C)C [10732/A03] | -9.9 | 37.4
CC(C)c1ccc2occ(C=C3C(=O)Nc4ccc(S(=O)(=O)Nc5ccc(C(F)(F)F)cc5)cc43)c(=O)c2c1 [10731/E05] | 7.0 | 82.2
CN1C(=O)C(=C2C(=O)Nc3ccc(CCCl)cc32)c2ccccc21 [10731/G10] | -9.0 | 10.3
C=C(C)C1CC=C(C=C2C(=O)Nc3ccc(S(=O)(=O)NC)cc32)CC1 (centres unmarked) [10731/D04] | 9.3 | 24.5
CN1C(=O)C(=C2C(=O)Nc3ccc(S(=O)(=O)Nc4ccc(C(F)(F)F)cc4)cc32)c2ccccc21 [10731/E10] | 33.1 | 35.5
Cc1cc2occ(C=C3C(=O)Nc4ccc(S(=O)(=O)N5CCOCC5)cc43)c(=O)c2cc1C [10731/F03] | 7.9 | 40.6
CNS(=O)(=O)c1ccc2c(c1)C(=Cc1cc(Br)c(OC)c(C(C)(C)C)c1)C(=O)N2 [10732/D07] | 14.7 | 43.2
Cc1ccc2occ(C=C3C(=O)Nc4ccc(CCCl)cc43)c(=O)c2c1 [10731/G06] | 10.8 | 33.3
Cc1c(Br)ccc2c1C(=Cc1ccco1)C(=O)N2 [10718/C10] | -11.9 | 4.4
CC(C)c1cc(C=C2C(=O)Nc3c(Br)cc(Br)cc32)cc(C(C)C)c1Oc1ccccc1 [10732/A04] | -14.1 | 34.8
CCn1c2ccccc2c2cc(C=C3C(=O)Nc4ccc(S(=O)(=O)N5CCOCC5)cc43)ccc21 [10731/F02] | 11.1 | 47.5
CC(C)c1ccc2occ(C=C3C(=O)Nc4ccc(S(=O)(=O)N5CCOCC5)cc43)c(=O)c2c1 [10731/F05] | 17.6 | 84.4
CC(C)(C)c1cc(C=C2C(=O)Nc3ccc(I)cc32)ccc1OCc1ccccc1 [10732/B06] | 8.1 | 74.3
CCOC(=O)CCc1c(C(=O)OCC)[nH]c(C=C2C(=O)Nc3ccc(S(=O)(=O)NC)cc32)c1CC(=O)OCC [10718/D05] | 11.5 | 10.6
COc1c(I)cc(C=C2C(=O)Nc3ccc(I)cc32)cc1C(C)(C)C [10732/B11] | 9.0 | 73.7
